From ChEMBL document CHEMBL1201862, “PubChem BioAssay data set” (2004)
Calls of active or inactive are those of the source.

Tests used:
[1] = target: 26S proteasome non-ATPase regulatory subunit 14 (Homo sapiens, UniProt O00487); test: inhibition of proteasome subunit RPN11 – biochemical, fluorescence polarization, uHTS hits, confirmation (AID 602368); format: functional
[2] = target: 72 kDa type IV collagenase (Homo sapiens, UniProt P08253); test: Dose Response validation of uHTS RPN11 inhibitor hits using a MMP-2 Fluorescence assay.; format: functional
Prothrombin = Prothrombin (Bos taurus, UniProt P00735); test: thrombin inhibition, dose response, biochemical, fluorescence polarization, uHTS hits (AID 602369); format: functional
H9c2 = test: cells; format: functional, cell-based; details: Rattus norvegicus, H9c2, Myocardium
[3] = target: T1, Apoptotic protease-activating factor 1 (Homo sapiens, UniProt O14727); test: SAR analysis of small molecule Activators of Apaf-1 in a Fluorescent assay.; format: functional; details: read-out: EC50_Mean
T1 sequence (O14727 whole entry): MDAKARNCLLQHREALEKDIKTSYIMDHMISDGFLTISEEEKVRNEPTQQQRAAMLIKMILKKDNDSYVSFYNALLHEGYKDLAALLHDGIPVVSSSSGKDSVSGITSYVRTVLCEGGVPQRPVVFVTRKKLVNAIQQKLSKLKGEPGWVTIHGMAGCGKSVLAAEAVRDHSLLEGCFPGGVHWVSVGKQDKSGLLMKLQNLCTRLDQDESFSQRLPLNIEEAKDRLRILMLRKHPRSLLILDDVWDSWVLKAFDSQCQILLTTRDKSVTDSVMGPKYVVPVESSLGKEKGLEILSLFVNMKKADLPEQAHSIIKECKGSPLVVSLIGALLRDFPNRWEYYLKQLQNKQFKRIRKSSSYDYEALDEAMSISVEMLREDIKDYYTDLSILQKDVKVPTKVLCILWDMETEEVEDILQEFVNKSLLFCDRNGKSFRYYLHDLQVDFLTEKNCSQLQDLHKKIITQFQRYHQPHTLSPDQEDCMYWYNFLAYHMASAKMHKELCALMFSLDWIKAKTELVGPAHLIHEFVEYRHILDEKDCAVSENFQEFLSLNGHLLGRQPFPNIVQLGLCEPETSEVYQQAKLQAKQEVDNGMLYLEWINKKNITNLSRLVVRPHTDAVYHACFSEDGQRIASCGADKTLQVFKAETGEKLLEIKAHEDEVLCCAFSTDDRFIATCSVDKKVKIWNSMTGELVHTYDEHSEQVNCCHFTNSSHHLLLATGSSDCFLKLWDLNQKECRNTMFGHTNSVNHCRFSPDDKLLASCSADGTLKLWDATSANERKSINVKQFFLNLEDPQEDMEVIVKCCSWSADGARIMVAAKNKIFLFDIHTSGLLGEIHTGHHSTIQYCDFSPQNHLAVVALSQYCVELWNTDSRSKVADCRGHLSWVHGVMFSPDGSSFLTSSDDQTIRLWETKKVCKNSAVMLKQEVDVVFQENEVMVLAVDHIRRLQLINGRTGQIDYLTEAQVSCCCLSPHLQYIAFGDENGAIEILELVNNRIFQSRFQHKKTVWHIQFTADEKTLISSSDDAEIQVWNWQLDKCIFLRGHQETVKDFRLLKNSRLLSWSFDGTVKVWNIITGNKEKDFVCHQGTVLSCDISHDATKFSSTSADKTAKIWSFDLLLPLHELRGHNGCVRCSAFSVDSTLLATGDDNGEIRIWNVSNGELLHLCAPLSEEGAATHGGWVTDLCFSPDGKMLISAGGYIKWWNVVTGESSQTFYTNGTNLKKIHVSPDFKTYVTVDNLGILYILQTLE

[4] = target: Adenosylmethionine-8-amino-7-oxononanoate aminotransferase (Mycobacterium tuberculosis, UniProt P9WQ81); test: Mycobacterium tuberculosis BioA enzyme inhibitor Measured in Biochemical System Using Plate Reader - 2163-02_Inhibitor_Dose_CherryPick_Activity.; format: functional, Mycobacterium tuberculosis UT205
[5] = target: Ras and Rab interactor 1/Tyrosine-protein kinase ABL1 (Homo sapiens, UniProt P00519+Q13671); format: functional;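 further: biochemical TR-FRET dose-response test measuring inhibition of binding between Rin1 and Abl proteins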
[6] = control 3'UTR Renilla luciferase suppression, dose response, counter-screen for Shn3 inhibitor project, cell-based, Clone20-Shn3RL, cherry-picked (AID 624133); format: functional
HEK293 = test: inhibitors of LMP1-driven NF-kB reporter, dose response, cell-based, HEK293, luciferase, cherry-pick (AID 588343); format: functional; details: Homo sapiens
[7] = HepG2 cell cytotoxicity, dose response, cytotoxicity control for Shn3 inhibitor project, CellTiter-Glo, cherry-picked (AID 624134); format: functional, cell-based
[8] = target: T2, Latent membrane protein 1 (Human herpesvirus 4 (strain B95-8), UniProt P03230); test: TES1-eGFP NF-kB reporter inhibition versus Tet-On dsRED, dose response, selectivity assay for LMP1 NF-kB inhibitor project, imaging, HEK293T, dual-color eGFP/dsRED, cherry-picks (AID 588398); format: functional, cell-based
T2 sequence (P03230 whole entry): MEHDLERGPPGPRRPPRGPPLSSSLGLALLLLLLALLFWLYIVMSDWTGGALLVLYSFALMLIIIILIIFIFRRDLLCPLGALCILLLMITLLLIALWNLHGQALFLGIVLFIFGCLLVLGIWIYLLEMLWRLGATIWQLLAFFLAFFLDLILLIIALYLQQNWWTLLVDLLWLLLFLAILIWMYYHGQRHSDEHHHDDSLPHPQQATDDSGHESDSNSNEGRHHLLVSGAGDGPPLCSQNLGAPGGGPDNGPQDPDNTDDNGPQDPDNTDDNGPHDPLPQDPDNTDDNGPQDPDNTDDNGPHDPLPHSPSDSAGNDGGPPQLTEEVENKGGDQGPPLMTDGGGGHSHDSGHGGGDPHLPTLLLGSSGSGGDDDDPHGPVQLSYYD

[9] = NIH-3T3 fibroblast cytotoxicity, dose response, cytotoxicity control, cell-based, fluorescence, Alamar Blue, secondary assay (AID 2327); format: functional;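 further: NIH-3T3 mouse fibroblasts cultured with fluconazole at 8 µg/mL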
Vero = test: cells; format: functional; details: Chlorocebus sabaeus
[10] = C. albicans growth with fluconazole, confirmation, fluorescence, retest (AID 2467); format: functional, cell-based
[11] = Shn3 3'UTR reporter inhibitors, dose response, cell-based, Clone20 osteoblasts, firefly luciferase, cherry-picked (AID 624132); format: functional;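 further: firefly luciferase luminescence from reporter carrying the Shn3 3'UTR in osteoblasts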
[12] = target: T3, Sentrin-specific protease 8 (Homo sapiens, UniProt Q96LD8); format: functional
T3 sequence (Q96LD8 whole entry): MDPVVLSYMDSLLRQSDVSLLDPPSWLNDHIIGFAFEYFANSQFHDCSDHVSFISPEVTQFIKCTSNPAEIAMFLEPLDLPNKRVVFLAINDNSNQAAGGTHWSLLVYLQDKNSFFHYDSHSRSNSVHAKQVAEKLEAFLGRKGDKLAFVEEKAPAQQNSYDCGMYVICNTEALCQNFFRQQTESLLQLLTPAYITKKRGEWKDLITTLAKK

P388 = test: cells; format: functional; details: Mus musculus
[13] = target: T3, Sentrin-specific protease 8; format: functional; remark: listed apart in the source
[14] = target: T1, Apoptotic protease-activating factor 1; format: functional
P388/ADR = test: cells; format: functional; details: Mus musculus
Caspase-6 = target: T4, Caspase-6 (Homo sapiens, UniProt P55212); test: human caspase-6 inhibitors, dose response, biochemical, VEID-R110 fluorescence, cherry-pick (AID 720632)
T4 sequence (P55212 whole entry): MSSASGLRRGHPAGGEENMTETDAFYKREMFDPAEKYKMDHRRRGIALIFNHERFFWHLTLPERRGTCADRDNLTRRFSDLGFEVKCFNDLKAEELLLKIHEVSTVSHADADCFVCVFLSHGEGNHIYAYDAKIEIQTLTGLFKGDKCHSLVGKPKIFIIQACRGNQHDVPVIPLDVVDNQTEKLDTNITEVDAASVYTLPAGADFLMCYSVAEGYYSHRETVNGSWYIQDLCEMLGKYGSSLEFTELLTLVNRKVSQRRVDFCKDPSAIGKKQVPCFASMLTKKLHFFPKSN

SN12K1 = test: cells; format: functional; details: Homo sapiens
[15] = target: T5, Probable nicotinate-nucleotide adenylyltransferase (Staphylococcus aureus (strain N315), UniProt P65502); format: functional, Staphylococcus aureus subsp. aureus N315;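 on IC50 Mean: confirmatory dose-response retesting of NadD inhibitor hits first found in an ultra-high-throughput screen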
[16] = target: T5, Probable nicotinate-nucleotide adenylyltransferase; format: functional, Staphylococcus aureus subsp. aureus N315; details: read-out: IC50_Mean
[17] = target: T6, Sentrin-specific protease 1 (Homo sapiens, UniProt Q9P0U3); test: potency of human SENP1 inhibitors, dose response, biochemical, kinetic FRET (AID 651697); format: functional; details: read-out: IC50_Mean
T6 sequence (Q9P0U3 whole entry): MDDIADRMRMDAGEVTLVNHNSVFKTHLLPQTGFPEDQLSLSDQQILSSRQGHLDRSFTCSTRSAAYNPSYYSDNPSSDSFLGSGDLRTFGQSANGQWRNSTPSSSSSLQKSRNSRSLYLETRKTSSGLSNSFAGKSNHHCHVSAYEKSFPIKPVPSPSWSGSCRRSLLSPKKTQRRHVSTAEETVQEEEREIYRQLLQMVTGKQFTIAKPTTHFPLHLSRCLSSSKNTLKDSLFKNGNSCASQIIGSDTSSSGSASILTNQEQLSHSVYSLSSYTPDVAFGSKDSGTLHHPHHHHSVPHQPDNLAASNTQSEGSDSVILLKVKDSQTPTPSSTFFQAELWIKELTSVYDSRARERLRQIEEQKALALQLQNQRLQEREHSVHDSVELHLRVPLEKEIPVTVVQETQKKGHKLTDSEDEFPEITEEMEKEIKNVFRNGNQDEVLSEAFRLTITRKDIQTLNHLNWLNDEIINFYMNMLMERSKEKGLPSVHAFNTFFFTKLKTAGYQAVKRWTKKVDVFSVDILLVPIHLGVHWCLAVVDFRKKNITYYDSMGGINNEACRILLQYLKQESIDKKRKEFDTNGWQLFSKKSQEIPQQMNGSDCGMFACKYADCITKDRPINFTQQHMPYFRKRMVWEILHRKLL

[18] = target: T6, Sentrin-specific protease 1; test: Dose response confirmation of small molecule inhibitors of the catalytic domain of the SUMO protease, SENP1 in a FRET assay.; format: functional; details: read-out: IC50_Mean
[19] = target: T7, Rac GTPase-activating protein 1 (Homo sapiens, UniProt Q9H0H5); test: MgcRacGAP GTPase-activating activity inhibitors, confirmation, biochemical, ADP Hunter fluorescence, primary and confirmatory (AID 624330); format: functional
T7 sequence (Q9H0H5 whole entry): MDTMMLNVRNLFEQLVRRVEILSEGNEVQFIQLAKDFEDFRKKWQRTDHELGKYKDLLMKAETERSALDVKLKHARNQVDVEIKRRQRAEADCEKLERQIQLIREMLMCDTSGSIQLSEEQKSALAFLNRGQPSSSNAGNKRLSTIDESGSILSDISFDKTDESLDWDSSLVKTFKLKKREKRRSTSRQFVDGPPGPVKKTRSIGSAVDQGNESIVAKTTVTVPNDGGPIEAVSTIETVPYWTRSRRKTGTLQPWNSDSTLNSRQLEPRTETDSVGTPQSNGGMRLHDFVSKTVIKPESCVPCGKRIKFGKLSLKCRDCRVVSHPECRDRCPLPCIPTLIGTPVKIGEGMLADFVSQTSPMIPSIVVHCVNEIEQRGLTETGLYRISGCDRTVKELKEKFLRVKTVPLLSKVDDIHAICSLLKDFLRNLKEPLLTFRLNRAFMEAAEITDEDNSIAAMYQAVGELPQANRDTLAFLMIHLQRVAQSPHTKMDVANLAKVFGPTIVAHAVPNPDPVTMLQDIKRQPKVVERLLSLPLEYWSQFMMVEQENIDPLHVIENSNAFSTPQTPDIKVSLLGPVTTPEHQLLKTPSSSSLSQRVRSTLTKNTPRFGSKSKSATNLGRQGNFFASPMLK
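Wherever EC50 Mean is given: caspase-3 cleavage of fluorogenic Rh110 DEVD substrate downstream of apoptosome activation.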

T5 sequence (P65502 whole entry): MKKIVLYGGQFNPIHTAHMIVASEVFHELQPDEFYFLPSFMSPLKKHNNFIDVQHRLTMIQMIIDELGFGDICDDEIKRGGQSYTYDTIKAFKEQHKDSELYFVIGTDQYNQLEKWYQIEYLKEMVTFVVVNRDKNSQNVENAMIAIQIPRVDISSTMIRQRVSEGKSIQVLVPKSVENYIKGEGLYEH
Sequence of 72 kDa type IV collagenase (P08253 whole entry): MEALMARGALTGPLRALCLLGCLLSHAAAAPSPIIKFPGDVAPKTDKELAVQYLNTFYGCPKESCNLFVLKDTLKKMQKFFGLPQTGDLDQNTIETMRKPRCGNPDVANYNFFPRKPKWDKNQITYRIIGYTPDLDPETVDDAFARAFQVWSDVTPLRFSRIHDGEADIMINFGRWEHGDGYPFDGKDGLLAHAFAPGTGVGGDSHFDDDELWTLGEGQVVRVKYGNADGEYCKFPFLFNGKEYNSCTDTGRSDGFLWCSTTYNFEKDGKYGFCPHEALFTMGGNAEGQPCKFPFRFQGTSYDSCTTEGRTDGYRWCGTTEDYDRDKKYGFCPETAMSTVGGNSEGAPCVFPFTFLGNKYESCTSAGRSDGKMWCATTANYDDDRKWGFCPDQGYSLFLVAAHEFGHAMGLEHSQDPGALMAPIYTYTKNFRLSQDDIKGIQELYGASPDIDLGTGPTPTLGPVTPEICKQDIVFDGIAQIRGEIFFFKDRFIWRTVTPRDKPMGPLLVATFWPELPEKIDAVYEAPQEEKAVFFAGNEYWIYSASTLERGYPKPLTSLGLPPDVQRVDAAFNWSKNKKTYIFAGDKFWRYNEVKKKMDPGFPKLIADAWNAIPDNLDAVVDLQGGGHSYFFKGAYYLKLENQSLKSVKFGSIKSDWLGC
Sequence of Adenosylmethionine-8-amino-7-oxononanoate aminotransferase (P9WQ81 whole entry): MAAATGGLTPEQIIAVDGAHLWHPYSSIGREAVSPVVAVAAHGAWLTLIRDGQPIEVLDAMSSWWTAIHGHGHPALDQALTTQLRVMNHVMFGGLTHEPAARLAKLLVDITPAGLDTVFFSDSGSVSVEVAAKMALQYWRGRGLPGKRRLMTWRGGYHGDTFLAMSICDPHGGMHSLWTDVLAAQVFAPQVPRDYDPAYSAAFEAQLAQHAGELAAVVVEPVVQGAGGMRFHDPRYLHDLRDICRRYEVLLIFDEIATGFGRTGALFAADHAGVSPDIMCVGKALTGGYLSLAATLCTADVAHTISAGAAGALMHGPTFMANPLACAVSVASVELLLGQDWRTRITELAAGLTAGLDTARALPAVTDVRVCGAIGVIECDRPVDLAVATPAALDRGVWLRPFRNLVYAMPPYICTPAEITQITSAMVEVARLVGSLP
Sequence of 26S proteasome non-ATPase regulatory subunit 14 (O00487 whole entry): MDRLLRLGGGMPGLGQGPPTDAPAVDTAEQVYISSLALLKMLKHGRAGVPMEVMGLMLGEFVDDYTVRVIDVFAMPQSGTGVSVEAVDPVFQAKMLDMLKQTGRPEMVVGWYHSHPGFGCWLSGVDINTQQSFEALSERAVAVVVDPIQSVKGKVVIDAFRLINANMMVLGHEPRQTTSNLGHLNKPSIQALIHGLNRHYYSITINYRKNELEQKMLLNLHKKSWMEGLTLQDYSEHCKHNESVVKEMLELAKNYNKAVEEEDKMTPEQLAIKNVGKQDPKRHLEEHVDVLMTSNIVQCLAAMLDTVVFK
Sequence of Ras and Rab interactor 1/Tyrosine-protein kinase ABL1 (P00519 whole entry): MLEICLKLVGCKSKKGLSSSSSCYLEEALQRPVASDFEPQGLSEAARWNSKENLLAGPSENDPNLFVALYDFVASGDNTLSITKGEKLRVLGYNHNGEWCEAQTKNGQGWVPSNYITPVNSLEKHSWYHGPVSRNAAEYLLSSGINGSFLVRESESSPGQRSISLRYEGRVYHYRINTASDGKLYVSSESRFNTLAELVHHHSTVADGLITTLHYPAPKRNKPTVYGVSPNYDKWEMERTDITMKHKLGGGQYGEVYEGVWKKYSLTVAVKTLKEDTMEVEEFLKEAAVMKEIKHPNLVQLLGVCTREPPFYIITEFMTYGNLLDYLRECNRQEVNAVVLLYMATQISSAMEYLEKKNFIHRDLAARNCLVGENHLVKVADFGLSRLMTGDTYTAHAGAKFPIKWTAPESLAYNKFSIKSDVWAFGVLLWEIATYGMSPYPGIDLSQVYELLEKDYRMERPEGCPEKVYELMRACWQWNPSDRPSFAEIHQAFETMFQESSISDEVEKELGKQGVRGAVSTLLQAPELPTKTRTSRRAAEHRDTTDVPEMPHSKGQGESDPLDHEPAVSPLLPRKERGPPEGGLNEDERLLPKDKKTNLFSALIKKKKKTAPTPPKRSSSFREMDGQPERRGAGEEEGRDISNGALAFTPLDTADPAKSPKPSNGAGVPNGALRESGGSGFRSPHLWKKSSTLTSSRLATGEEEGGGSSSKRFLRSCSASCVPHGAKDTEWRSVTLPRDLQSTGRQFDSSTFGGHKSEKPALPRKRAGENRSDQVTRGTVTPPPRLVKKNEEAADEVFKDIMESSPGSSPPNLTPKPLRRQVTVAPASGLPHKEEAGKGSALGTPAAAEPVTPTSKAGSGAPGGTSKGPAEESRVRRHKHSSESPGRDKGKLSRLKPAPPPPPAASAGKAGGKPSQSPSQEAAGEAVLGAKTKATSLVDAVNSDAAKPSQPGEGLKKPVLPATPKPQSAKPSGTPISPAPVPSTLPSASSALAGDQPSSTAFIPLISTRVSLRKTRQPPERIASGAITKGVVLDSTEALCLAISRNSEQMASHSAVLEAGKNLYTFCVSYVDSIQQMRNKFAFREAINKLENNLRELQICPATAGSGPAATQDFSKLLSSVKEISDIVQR
Sequence of Ras and Rab interactor 1/Tyrosine-protein kinase ABL1 (Q13671 whole entry): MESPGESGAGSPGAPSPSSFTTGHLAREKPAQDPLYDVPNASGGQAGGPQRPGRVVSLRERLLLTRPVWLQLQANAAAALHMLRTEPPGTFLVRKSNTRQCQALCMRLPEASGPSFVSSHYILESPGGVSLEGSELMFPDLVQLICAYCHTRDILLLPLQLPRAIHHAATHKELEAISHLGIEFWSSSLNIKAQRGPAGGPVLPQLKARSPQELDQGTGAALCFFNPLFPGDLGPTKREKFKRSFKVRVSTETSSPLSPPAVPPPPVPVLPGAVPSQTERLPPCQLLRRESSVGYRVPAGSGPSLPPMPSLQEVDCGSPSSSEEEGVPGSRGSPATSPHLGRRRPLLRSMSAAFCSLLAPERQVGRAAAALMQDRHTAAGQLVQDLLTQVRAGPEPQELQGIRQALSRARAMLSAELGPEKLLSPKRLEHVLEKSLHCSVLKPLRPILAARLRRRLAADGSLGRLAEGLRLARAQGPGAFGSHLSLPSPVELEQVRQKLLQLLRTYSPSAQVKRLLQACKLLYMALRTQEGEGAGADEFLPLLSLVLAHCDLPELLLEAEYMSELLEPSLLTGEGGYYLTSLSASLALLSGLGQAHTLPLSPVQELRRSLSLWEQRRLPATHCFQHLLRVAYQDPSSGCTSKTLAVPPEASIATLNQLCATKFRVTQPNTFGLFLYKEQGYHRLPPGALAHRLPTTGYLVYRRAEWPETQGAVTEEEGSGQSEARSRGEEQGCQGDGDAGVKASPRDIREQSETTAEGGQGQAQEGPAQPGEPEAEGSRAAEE

## COc1ccc(-c2ccc3c(c2)S(=O)(=O)c2cccc(C(=O)N4CCN(c5c(Cl)cncc5Cl)CC4)c2C3=O)cc1OC
[1]
  IC50: 21.7 µM (active)
[2]
  IC50: > 100 µM (inactive)
Prothrombin
  IC50: 29.3 µM (active)
H9c2
  IC50: > 79 µM (inactive)

## CN1c2ccccc2C(C)(C)C12CC(c1ccc(F)cc1)=NO2 (stereo not given)
[3]
  EC50: > 100 µM (inactive)

## Cc1c(OC(C)C(=O)NCc2ccccn2)ccc2c3c(c(=O)oc12)CCC3 (stereo not given)
[4]
  AC50: 6.05 µM (active)

## CCOC(=O)CCCCC(=O)c1[nH]c(O)nc1C[n+]1ccc(C)cc1
[5]
  IC50: 5.77 µM (active)

## COc1ccc(C(=O)NC(=S)NNC(=O)c2ccc3ccccc3n2)cc1
[6]
  AC50: 1.37 µM (active)
HEK293
  AC50: 13.6 µM (active)
[7]
  AC50: 41.5 µM (active)
[8]
  AC50: 26.8 µM (active)
[9]
  EC50: 28.4 µM (active)
Vero
  CC50: 10.1 µM (active)
[10]
  EC50: 3.06 µM (active)
[11]
  AC50: 4.32 µM (active)

## CCc1nn(CC(=O)N2CCN(Cc3ccc4c(c3)OCO4)CC2)c(=O)c2cc3occc3n12
[4]
  AC50: 1.01 µM (active)

## Cn1c(=O)[nH]c2nncnc2c1=O
[12]
  IC50: 1.62 µM (active)
P388
  GI50: 25.8 µM (inactive)
[13]
  IC50: 2.08 µM (active)
[14]
  IC50: 15.4 µM (active)
P388/ADR
  GI50: 213 µM (inactive)
Caspase-6
  AC50: 7.06 µM (active)
SN12K1
  GI50: 65.8 µM (inactive)

## CC(C)N(Cc1cc2ccccc2nc1O)C(=O)C1CCCCC1
[14]
  IC50: 13.6 µM (active)

## CCn1c2ccccc2c2cc(/C=N/n3c(S)nnc3-c3cc(C)[nH]n3)ccc21
HEK293
  AC50: 8.12 µM (active)
[8]
  AC50: 0.288 µM (active)
[15]
  IC50: 8.02 µM (active)
[16]
  IC50: 33.7 µM (active)

## N[C@@H](CCc1ccccc1)C(=O)O [HOMOPHENYLALANINE]
[3]
  EC50: > 100 µM (inactive)

## CCOC(=O)C1CCCN(C2=NC(=O)/C(=C/c3ccc(O)c(OC)c3)S2)C1 (stereo not given)
[1]
  IC50: 26.3 µM (active)
[17]
  IC50: 2.97 µM (active)
[2]
  IC50: > 100 µM (inactive)
Prothrombin
  IC50: 40.6 µM (active)
[18]
  IC50: 2.49 µM (active)
[19]
  IC50: 19.6 µM (active)
